PMC6591174, “The beneficial androgenic action of steroidal aromatase inactivators in estrogen-dependent breast cancer after failure of nonsteroidal drugs” (Cell Death & Disease, 2019)

How the values were obtained:
[1] = test system: prostate (P), seminal vesicle (SV), levator ani muscle (LA); experiment: Hershberger assay in orchiectomized rats; format: in vivo, Wistar male rats; settings: doses as in Fig. 5, s.c. once a day, 12 days, castrated rats
Protocol: Fig. 5 Estimation of the androgenic and myotrophic activities of the indicated compounds obtained by the Hershberger Assay. Wistar male rats were orchiectomized (orchi) or sham-operated (intact) under ether anesthesia. After 14 days of endogenous hormonal decline, animals were randomly allocated to treatment and vehicle groups (n = 6). The numbers at the end of the abbreviations correspond to the dose in mg/kg body weight of the animal. Flutamide was given by gavage (10 mg/kg/day). […] Then the animals were treated once a day. The rats were sacrificed after completion of the 12-day treatment. Following removal, wet weights of the prostate (P), seminal vesicle (SV), levator ani muscle (LA) were determined. a Size and shape of P, SV and LA at the end of the treatment period. b, c, and d, influence of treatment with the compounds alone or together with the antiandrogen flutamide at the indicated doses on the weight of the organs (P, SV and LA) of the castrated animals. The mean wet weight is represented by the bars in the graphs. Values are means ± SEM; bars, SEM. *P ≤ 0.05, **P ≤ 0.01 vs. control
The Hershberger assay was performed according to the guidelines of the rodent Hershberger assay. Male Wistar rats (140 g, 5–6 weeks) were orchiectomized (orchi) or sham-operated (intact) under ether anesthesia. After 14 days of endogenous hormonal decline, animals were randomly allocated to treatment and vehicle groups (n = 6); orchi group = orchi rats receiving sham injections; intact group = sham-operated rats receiving sham injections; treatment group = orchi rats receiving drugs injections by subcutaneous. The antiandrogen flutamide given by gavage (10 mg/kg/day). Drugs were dissolved in ethanol and diluted in corn oil. The animals were treated once a day. Rats were sacrificed after completion of the 12-day treatment. Following removal, the wet weights of the P, SV, and LA muscle were determined. The data of tissue weights are presented as mean ± SEM.

[2] = biological target: T1, Rat AR ligand-binding domains (His-GST-ARLBD) (Rattus norvegicus, UniProt P15207); experiment: AR fluorescence polarization-based competitive hormone-binding assay (PolarScreen AR Competitor Assay, Red); settings: 25 nM His-GST-ARLBD, 2 nM Fluormone AL Red; read-out: IC50 of competitive binding to AR
T1 construct: purchased Invitrogen
T1 sequence (P15207 651-882 limits assumed): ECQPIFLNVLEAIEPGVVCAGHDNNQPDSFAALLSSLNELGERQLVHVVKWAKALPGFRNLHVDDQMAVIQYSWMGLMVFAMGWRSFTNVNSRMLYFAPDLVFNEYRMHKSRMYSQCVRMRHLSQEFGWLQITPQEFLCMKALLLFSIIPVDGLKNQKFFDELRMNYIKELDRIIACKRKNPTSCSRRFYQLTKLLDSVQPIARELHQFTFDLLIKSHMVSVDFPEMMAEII
From the text: Fig. 4 The affinity of indicated compounds to the AR and their regulation of AR transcriptional activity. a AR fluorescence polarization-based competitive hormone-binding assays. […] Curve fitting was done using GraphPad Prism software (version 7.00). […] ARE(3×)-regulated dual-luciferase activity in U2-OS cells under steroid-free conditions. Cells were transiently transfected with pcDNA3.1-AR and ARE3-luc2P (firefly luciferase reporter plasmids) and the internal normalization control pRL-TK (Renilla luciferase reporter plasmid). Six hours after transfection, cells were treated as indicated. Then they were assayed 48 h after transfection for dual-luciferase activity. […] Briefly, compounds were dissolved in DMSO and mixed at 2% (vol/vol) with AR Red Screening Buffer. The tested compounds were subsequently serially diluted in two-fold increments with AR Red Screening Buffer and mixed 1:1 (vol/vol) with a 2 × AR/Fluormone AL complex. Competition for binding AR between Fluormone AL and the tested compounds was allowed to come to equilibrium for 4 h and not more than 20 h at room temperature in the dark. Fluorescence polarization value (mP) was measured on a fluorescence polarization plate reader (Biotech cytation5). Each compound dose was performed in triplicate, relative error was calculated from the standard error of the mean (SEM), and curve fitting was performed using GraphPad Prism™ 7.0 software.

[3] = test system: cyclin D1 in MCF-7 cells
[4] = test system: AR protein in MCF-7 cells; experiment: AR protein expression by western blot and immunofluorescence; format: cell-based, human; settings: incubation 3 days
Protocol: Fig. 3 Influence of indicated compounds on the expression of the AR. […] AR protein expression was analyzed by western blot as described in “Materials and methods”. b The densitometric evaluation of the bands is calculated by ImageJ. The numbers represent the densitometric value relative to untreated control. […] Typical image is shown. Scale bars: 10 μm
Total cell proteins were obtained from 70% confluent cell cultures. Protein extracts of whole cells (50 μg) were denatured, separated by SDS–PAGE and transferred to polyvinylidene fluoride membranes. After blocking with 3% bovine serum albumin in Tris-buffered saline-Tween, membranes were probed overnight at 4 °C. […] After incubation with the appropriate secondary antibody, results were detected using ECL detection reagents. Immunoreactive bands were quantified by densitometry using ImageJ software.
MCF-7 cells were seeded on 24-well plates (2 × 10^4 cells/well) with a poly-L-lysine-coated glass coverslip per well in 10% PRF–CT. […] Cells were visualized with a ×40 objective and a Qimaging digital camera coupled to an Olympus X71 fluorescence microscope using a red fluorescent protein filter.

Row | Structure (SMILES) | myotrophic effect (LA) [1] | IC50 [2] [nM] | androgenic effect (P and SVs, size and wet weight) [1] | Cyclin D1 mRNA and protein [3] | expression of the AR protein [4]
1 | C[C@]12CC[C@H]3[C@@H](CCC4=C(O)C(=O)CC[C@@]43C)[C@@H]1CC[C@@H]2O [4-OHT, 4-hydroxytestosterone] | a little more myotrophic than 17-HEXE | 18.2 | – | – | –
2 | C=C1C[C@H]2[C@@H]3CC[C@H](O)[C@@]3(C)CC[C@@H]2[C@@]2(C)C=CC(=O)C=C12 [17-HEXE, 17-hydroexemestane] | – | 10.4 | a little more androgenic than 4-OHT | – | –
3 | C[C@]12CCC(=O)C[C@@H]1CC[C@@H]1[C@@H]2CC[C@]2(C)[C@@H](O)CC[C@@H]12 [DHT, dihydrotestosterone] | – | – | – | decrease | enhanced considerably
